Test results: the supplement of paper PMC10307832

Legend:
Assay in all cases: relative viability (nuclei count vs DMSO), 5 days (fraction); higher = more cells survive
[1] = compound: C1CNCCC1C2=CC(=NN2)C3=CC=NC=C3 + COc1cccc2cc(-c3nc([C@H]4CC[C@H](C(=O)O)CC4)n4ncnc(N)c34)[nH]c12 [OSI-027] (partner 0.5 µM)
How it was run: (§1)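 Five library-drug doses in √10 steps were combined with a fixed anchor-drug dose, or a single drug was given alone, by pin tool to lung cancer cell lines in 1536-well plates the day after seeding. Nuclei were stained and counted after 5 days. Relative viability is the nuclei count in treated wells over that in vehicle wells, taken as the median of duplicate plates.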

[2] = compound: C1CNCCC1C2=CC(=NN2)C3=CC=NC=C3 + Nc1ncn([C@H]2C[C@H](O)[C@@H](CO)O2)c(=O)n1 [Decitabine] (partner 2 µM)
How it was run: as §1

[3] = compound: C[C@@H](N)c1ccc(C(=O)Nc2ccnc3[nH]ccc23)cc1 + Nc1ncn([C@H]2C[C@H](O)[C@@H](CO)O2)c(=O)n1 [Decitabine] (partner 2 µM)
How it was run: as §1

Tanzisertib + Foretinib = compound: O[C@H]1CC[C@H](Nc2ncc3nc(Nc4c(F)cc(F)cc4F)n([C@H]4CCOC4)c3n2)CC1 [Tanzisertib] + COc1cc2c(Oc3ccc(NC(=O)C4(C(=O)Nc5ccc(F)cc5)CC4)cc3F)ccnc2cc1OCCCN1CCOCC1 [Foretinib] (partner 0.25 µM)
How it was run: as §1

Cell Line	relative viability ([1]; first compound 0.08 µM)	relative viability ([1]; first compound 0.8 µM)	relative viability ([1]; first compound 2.53 µM)	relative viability ([1]; first compound 8 µM)	relative viability ([2]; first compound 0.08 µM)	relative viability ([2]; first compound 0.8 µM)	relative viability ([2]; first compound 2.53 µM)	relative viability ([2]; first compound 8 µM)	relative viability ([3]; first compound 0.04 µM)	relative viability ([3]; first compound 0.1265 µM)	relative viability ([3]; first compound 0.4 µM)	relative viability ([3]; first compound 1.265 µM)	relative viability ([3]; first compound 4 µM)	relative viability (Tanzisertib + Foretinib; first compound 0.08 µM)	relative viability (Tanzisertib + Foretinib; first compound 0.253 µM)	relative viability (Tanzisertib + Foretinib; first compound 0.8 µM)	relative viability (Tanzisertib + Foretinib; first compound 2.53 µM)	relative viability (Tanzisertib + Foretinib; first compound 8 µM)
NCI-H1355	0.446	0.372	0.472	0.476	0.374	0.36	0.395	0.354	0.343	0.332	0.317	0.306	0.322	1.03	0.961	0.965	1.04	0.948
NCI-H1395	0.603	0.57	0.71	0.694	0.705	0.714	0.751	0.755	0.712	0.697	0.725	–	0.642	1.06	0.941	0.96	0.945	0.966
NCI-H1437	0.835	0.922	0.896	0.97	0.574	0.573	0.624	0.602	0.526	0.572	0.541	0.602	0.591	1.26	1.31	1.32	1.42	1.29
NCI-H1650	0.552	0.744	0.751	0.625	0.216	0.49	0.399	0.509	0.379	0.542	0.51	0.431	0.447	1.3	0.984	1.07	1.15	0.776
NCI-H1651	0.649	0.767	0.827	0.76	0.586	0.566	0.686	0.501	0.648	0.619	0.668	0.661	0.656	0.875	0.951	0.794	0.996	0.539
NCI-H1666	0.871	0.967	0.794	0.878	0.697	0.747	0.762	0.728	0.83	0.768	0.865	0.781	0.855	0.957	0.96	0.978	1.01	0.976
NCI-H1734	0.543	0.616	0.674	0.653	0.452	0.524	0.488	0.497	0.477	0.506	0.53	0.52	0.462	0.923	0.781	0.845	0.87	0.789
NCI-H1755	0.738	–	0.754	0.69	0.712	0.717	0.692	0.641	0.728	0.728	0.712	0.76	0.684	0.913	0.931	0.882	0.891	0.878
NCI-H1793	0.261	0.246	0.302	0.23	0.338	–	0.489	0.626	0.506	0.556	0.547	–	0.463	0.659	0.74	0.734	0.569	0.547
